Active and inactive are the calls of the source. The rule behind the calls is not given here.
Assays:
[1] = biological target: T1, ATP-dependent translocase ABCB1 (Homo sapiens, UniProt P08183); assay: Inhibition of P-glycoprotein-mediated drug efflux in human NCI/ADR-RES cells assessed as calcein AM accumulation after 30 mins by fluorescence spectrophotometry; assay type: cell-based; conditions: 0.5 h
[2] = biological target: T1, ATP-dependent translocase ABCB1; assay: Inhibition of P-glycoprotein-mediated drug efflux in human NCI/ADR-RES cells assessed as paclitaxel accumulation after 30 mins by HPLC; assay type: cell-based; conditions: 0.5 h
NCI/ADR-RES [3] = assay: Potentiation of vinblastine-induced cytotoxicity against P-gp expressing human NCI/ADR-RES cells assessed as reduction of vinblastine CC50 at 10 uM after 3 days by MTT assay; assay type: functional
NCI/ADR-RES [4] = assay: Potentiation of paclitaxel-induced cytotoxicity against P-gp expressing human NCI/ADR-RES cells assessed as reduction of paclitaxel CC50 at 10 uM after 3 days by MTT assay; assay type: functional
NCI/ADR-RES [5] = assay: Cytotoxicity against human NCI/ADR-RES cells at 10 uM after 3 days by MTT assay; assay type: functional, cell-based

T1 sequence (P08183 whole entry): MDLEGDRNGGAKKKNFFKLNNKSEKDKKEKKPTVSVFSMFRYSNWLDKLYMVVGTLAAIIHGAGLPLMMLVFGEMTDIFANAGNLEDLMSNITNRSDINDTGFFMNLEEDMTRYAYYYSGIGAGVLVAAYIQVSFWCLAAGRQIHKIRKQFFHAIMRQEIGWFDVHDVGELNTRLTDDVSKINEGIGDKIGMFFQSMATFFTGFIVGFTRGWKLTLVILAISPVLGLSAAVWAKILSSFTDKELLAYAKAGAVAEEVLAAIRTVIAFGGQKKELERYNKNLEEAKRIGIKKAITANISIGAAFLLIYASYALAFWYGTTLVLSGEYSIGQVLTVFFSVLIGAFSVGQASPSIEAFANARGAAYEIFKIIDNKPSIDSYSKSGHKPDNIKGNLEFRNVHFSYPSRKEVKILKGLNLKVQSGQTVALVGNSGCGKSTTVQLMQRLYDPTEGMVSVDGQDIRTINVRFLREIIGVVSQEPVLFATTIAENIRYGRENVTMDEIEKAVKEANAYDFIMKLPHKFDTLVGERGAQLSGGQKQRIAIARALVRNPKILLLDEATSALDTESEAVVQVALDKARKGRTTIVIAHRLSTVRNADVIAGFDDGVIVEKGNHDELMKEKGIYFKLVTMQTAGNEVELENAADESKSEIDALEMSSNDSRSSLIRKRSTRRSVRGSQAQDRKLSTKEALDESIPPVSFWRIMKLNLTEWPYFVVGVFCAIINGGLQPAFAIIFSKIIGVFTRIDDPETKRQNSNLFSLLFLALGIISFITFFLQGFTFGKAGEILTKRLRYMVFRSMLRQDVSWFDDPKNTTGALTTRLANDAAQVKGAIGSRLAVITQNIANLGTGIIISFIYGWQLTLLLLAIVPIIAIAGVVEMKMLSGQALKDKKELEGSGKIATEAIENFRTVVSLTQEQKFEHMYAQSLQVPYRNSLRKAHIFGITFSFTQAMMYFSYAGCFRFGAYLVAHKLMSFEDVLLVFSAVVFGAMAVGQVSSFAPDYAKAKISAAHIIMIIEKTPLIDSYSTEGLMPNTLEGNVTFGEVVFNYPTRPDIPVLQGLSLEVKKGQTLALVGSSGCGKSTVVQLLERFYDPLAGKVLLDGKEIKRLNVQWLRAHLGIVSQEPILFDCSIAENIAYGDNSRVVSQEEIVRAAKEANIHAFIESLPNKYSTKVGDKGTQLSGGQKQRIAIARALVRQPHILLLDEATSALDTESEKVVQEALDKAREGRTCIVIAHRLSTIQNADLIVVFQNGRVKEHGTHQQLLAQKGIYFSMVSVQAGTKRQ

For `COc1c(O)cc2oc(-c3ccccc3)cc(=O)c2c1O` [OROXYLIN A], which “inhibition (INH)” value [1] is on record?
Its value is “Dose-dependent effect”.

What about the “inhibition (INH)” value [2] of the same compound?
The value was “Dose-dependent effect”.

What about the “fold change (FC)” value (NCI/ADR-RES [3]) of the same compound?
Its value is 5.

What about the “fold change (FC)” value (NCI/ADR-RES [4]) of the same compound?
The value was 5.

And the Activity (NCI/ADR-RES [5])?
Its Activity is “inactive”.
